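Each compound was tested at five concentrations against cells in 96-well plates for 48 hours. GI50 is the concentration that inhibits growth by half. The concentration for full growth arrest is given as TGI.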
Assays:
Experiment in all cases: growth of human tumour cells (NCI), 48 h; in the data active = GI50 below about 0.43 µM; inactive = the rest
UO-31 renal = test system: UO-31 renal
NCI-H522 lung = test system: NCI-H522 lung
K-562 leukemia = test system: K-562 leukemia
MOLT-4 leukemia = test system: MOLT-4 leukemia
ACHN renal = test system: ACHN renal
BT-549 breast = test system: BT-549 breast
HOP-62 NSCLC = test system: HOP-62 NSCLC
NCI-H460 lung = test system: NCI-H460 lung
OVCAR-8 ovarian = test system: OVCAR-8 ovarian
NCI-H226 lung = test system: NCI-H226 lung
CAKI-1 renal = test system: CAKI-1 renal
HS 578T breast = test system: HS 578T breast
MCF7 breast = test system: MCF7 breast
SNB-19 CNS = test system: SNB-19 CNS
OVCAR-4 ovarian = test system: OVCAR-4 ovarian
MALME-3M melanoma = test system: MALME-3M melanoma
SF-539 CNS = test system: SF-539 CNS
RPMI-8226 leukemia = test system: RPMI-8226 leukemia
SF-295 CNS = test system: SF-295 CNS
MDA-MB-231 breast = test system: MDA-MB-231 breast
HCT-116 colon = test system: HCT-116 colon
RXF 393 renal = test system: RXF 393 renal
UACC-257 melanoma = test system: UACC-257 melanoma
OVCAR-5 ovarian = test system: OVCAR-5 ovarian
U251 CNS = test system: U251 CNS
SN12C renal = test system: SN12C renal
A549 NSCLC = test system: A549 NSCLC
M14 melanoma = test system: M14 melanoma
NCI-H23 lung = test system: NCI-H23 lung
HL-60(TB) leukemia = test system: HL-60(TB) leukemia
SK-OV-3 ovarian = test system: SK-OV-3 ovarian
HT29 colon = test system: HT29 colon
SK-MEL-2 melanoma = test system: SK-MEL-2 melanoma
COLO 205 colon = test system: COLO 205 colon
HOP-92 NSCLC = test system: HOP-92 NSCLC
T-47D breast = test system: T-47D breast
NCI/ADR-RES ovarian = test system: NCI/ADR-RES ovarian
CCRF-CEM leukemia = test system: CCRF-CEM leukemia
786-0 renal = test system: 786-0 renal
HCT-15 colon = test system: HCT-15 colon
SF-268 CNS = test system: SF-268 CNS
SW-620 colon = test system: SW-620 colon
SR leukemia = test system: SR leukemia
SK-MEL-5 melanoma = test system: SK-MEL-5 melanoma
OVCAR-3 ovarian = test system: OVCAR-3 ovarian
IGROV1 ovarian = test system: IGROV1 ovarian
SK-MEL-28 melanoma = test system: SK-MEL-28 melanoma
HCC-2998 colon = test system: HCC-2998 colon
DU-145 prostate = test system: DU-145 prostate
MDA-MB-435 = test system: MDA-MB-435
SNB-75 CNS = test system: SNB-75 CNS
TK-10 renal = test system: TK-10 renal
KM12 colon = test system: KM12 colon
UACC-62 melanoma = test system: UACC-62 melanoma
EKVX NSCLC = test system: EKVX NSCLC
LOX IMVI melanoma = test system: LOX IMVI melanoma
PC-3 prostate = test system: PC-3 prostate
A498 renal = test system: A498 renal

C=C1C(=O)O[C@H]2[C@H]1CC/C(COC(=O)CCSSCCC(=O)OC/C1=C/CC[C@@]3(C)O[C@H]3[C@H]3OC(=O)C(=C)[C@@H]3CC1)=C\CC[C@@]1(C)O[C@@H]21
active: GI50 (MCF7 breast) 426 nM | GI50 (HCT-116 colon) 330 nM | GI50 (RXF 393 renal) 247 nM | GI50 (CCRF-CEM leukemia) 225 nM | GI50 (SR leukemia) 308 nM
4270 nM: TGI (A549 NSCLC)
7450 nM: TGI (HS 578T breast)
3120 nM: TGI (OVCAR-4 ovarian) | TGI (LOX IMVI melanoma)
2770 nM: TGI (SR leukemia)
3340 nM: TGI (NCI-H460 lung) | TGI (NCI-H226 lung)
2600 nM: TGI (786-0 renal)
1950 nM: TGI (OVCAR-3 ovarian)
3900 nM: TGI (RPMI-8226 leukemia)
3020 nM: TGI (OVCAR-8 ovarian)
2950 nM: TGI (SK-MEL-28 melanoma)
2910 nM: TGI (SF-539 CNS)
3430 nM: TGI (UACC-257 melanoma)
19000 nM: TGI (SK-OV-3 ovarian)
2850 nM: TGI (K-562 leukemia)
2860 nM: TGI (U251 CNS)
10200 nM: TGI (NCI/ADR-RES ovarian)
980 nM: TGI (RXF 393 renal)
4010 nM: TGI (T-47D breast)
1190 nM: TGI (CCRF-CEM leukemia)
3470 nM: TGI (EKVX NSCLC)
3080 nM: TGI (SF-268 CNS)
2280 nM: TGI (UO-31 renal)
inactive: GI50 (UO-31 renal) 1080 nM | GI50 (NCI-H522 lung) 688 nM | GI50 (K-562 leukemia) 465 nM | GI50 (MOLT-4 leukemia) 437 nM | GI50 (ACHN renal) 897 nM | GI50 (BT-549 breast) 1100 nM | GI50 (HOP-62 NSCLC) 1980 nM | GI50 (NCI-H460 lung) 1590 nM | GI50 (OVCAR-8 ovarian) 1260 nM | GI50 (NCI-H226 lung) 1600 nM | GI50 (CAKI-1 renal) 1280 nM | GI50 (HS 578T breast) 1950 nM | GI50 (SNB-19 CNS) 1490 nM | GI50 (OVCAR-4 ovarian) 1520 nM | GI50 (MALME-3M melanoma) 1080 nM | GI50 (SF-539 CNS) 1500 nM | GI50 (RPMI-8226 leukemia) 1060 nM | GI50 (SF-295 CNS) 3500 nM | GI50 (MDA-MB-231 breast) 1230 nM | GI50 (UACC-257 melanoma) 1600 nM | GI50 (OVCAR-5 ovarian) 1590 nM | GI50 (U251 CNS) 1410 nM | GI50 (SN12C renal) 1140 nM | GI50 (A549 NSCLC) 1990 nM | GI50 (M14 melanoma) 1340 nM | GI50 (NCI-H23 lung) 1730 nM | GI50 (HL-60(TB) leukemia) 448 nM | GI50 (SK-OV-3 ovarian) 6670 nM | GI50 (HT29 colon) 819 nM | GI50 (SK-MEL-2 melanoma) 1930 nM | GI50 (COLO 205 colon) 1160 nM | GI50 (HOP-92 NSCLC) 1020 nM | GI50 (T-47D breast) 1200 nM | GI50 (NCI/ADR-RES ovarian) 2860 nM | GI50 (786-0 renal) 1280 nM | GI50 (HCT-15 colon) 429 nM | GI50 (SF-268 CNS) 1460 nM | GI50 (SW-620 colon) 458 nM | GI50 (SK-MEL-5 melanoma) 1440 nM | GI50 (OVCAR-3 ovarian) 650 nM | GI50 (IGROV1 ovarian) 1190 nM | GI50 (SK-MEL-28 melanoma) 1490 nM | GI50 (HCC-2998 colon) 1980 nM | GI50 (DU-145 prostate) 1300 nM | GI50 (MDA-MB-435) 1400 nM | GI50 (SNB-75 CNS) 1800 nM | GI50 (TK-10 renal) 1620 nM | GI50 (KM12 colon) 1830 nM | GI50 (UACC-62 melanoma) 1560 nM | GI50 (EKVX NSCLC) 1610 nM | GI50 (LOX IMVI melanoma) 1600 nM | GI50 (PC-3 prostate) 1330 nM
2540 nM: TGI (CAKI-1 renal) | TGI (MALME-3M melanoma) | TGI (HOP-92 NSCLC)
1900 nM: TGI (SW-620 colon)
3480 nM: TGI (SNB-75 CNS)
2780 nM: TGI (SK-MEL-5 melanoma)
3160 nM: TGI (SNB-19 CNS) | TGI (OVCAR-5 ovarian) | TGI (UACC-62 melanoma)
2880 nM: TGI (M14 melanoma)
3190 nM: TGI (TK-10 renal)
2330 nM: TGI (BT-549 breast)
4160 nM: TGI (SK-MEL-2 melanoma)
2580 nM: TGI (SN12C renal)
2110 nM: TGI (ACHN renal)
2270 nM: TGI (NCI-H522 lung)
2900 nM: TGI (PC-3 prostate)
1760 nM: TGI (HCT-15 colon)
3070 nM: TGI (MDA-MB-435)
2320 nM: TGI (MCF7 breast)
2660 nM: TGI (MDA-MB-231 breast) | TGI (IGROV1 ovarian)
3930 nM: TGI (HCC-2998 colon)
2190 nM: TGI (HL-60(TB) leukemia)
2570 nM: TGI (DU-145 prostate)
3690 nM: TGI (KM12 colon)
2390 nM: TGI (HT29 colon)
13900 nM: TGI (SF-295 CNS)
4640 nM: TGI (HOP-62 NSCLC)
1240 nM: TGI (HCT-116 colon)
2990 nM: TGI (COLO 205 colon)
2610 nM: TGI (MOLT-4 leukemia)
3720 nM: TGI (NCI-H23 lung)

O=c1[nH]c2cc(F)c(F)cc2nc1Cc1ccccc1
> 100000 nM: TGI (UO-31 renal) | TGI (K-562 leukemia) | TGI (MOLT-4 leukemia) | TGI (ACHN renal) | TGI (BT-549 breast) | TGI (HOP-62 NSCLC) | TGI (NCI-H460 lung) | TGI (OVCAR-8 ovarian) | TGI (NCI-H226 lung) | TGI (A498 renal) | TGI (CAKI-1 renal) | TGI (HS 578T breast) | TGI (MCF7 breast) | TGI (SNB-19 CNS) | TGI (OVCAR-4 ovarian) | TGI (SF-539 CNS) | TGI (SF-295 CNS) | TGI (MDA-MB-231 breast) | TGI (HCT-116 colon) | TGI (RXF 393 renal) | TGI (UACC-257 melanoma) | TGI (U251 CNS) | TGI (M14 melanoma) | TGI (NCI-H23 lung) | TGI (HL-60(TB) leukemia) | TGI (SK-OV-3 ovarian) | TGI (HT29 colon) | TGI (SK-MEL-2 melanoma) | TGI (COLO 205 colon) | TGI (HOP-92 NSCLC) | TGI (T-47D breast) | TGI (NCI/ADR-RES ovarian) | TGI (CCRF-CEM leukemia) | TGI (786-0 renal) | TGI (HCT-15 colon) | TGI (SF-268 CNS) | TGI (SW-620 colon) | TGI (SR leukemia) | TGI (SK-MEL-5 melanoma) | TGI (IGROV1 ovarian) | TGI (SK-MEL-28 melanoma) | TGI (HCC-2998 colon) | TGI (DU-145 prostate) | TGI (MDA-MB-435) | TGI (SNB-75 CNS) | TGI (TK-10 renal) | TGI (KM12 colon) | TGI (UACC-62 melanoma) | TGI (EKVX NSCLC) | TGI (LOX IMVI melanoma) | TGI (PC-3 prostate)
